{"source": "patent US20250295083A1", "about": "“METHODS FOR PRODUCING AN ORGANOGENIC CALLUS AND COMPOSITIONS, SYSTEMS, AND METHODS RELATING THERETO” (Pairwise Plants Services, Inc., priority 2022, published 2025)", "test_system": "cross sections of the stems (including nodes) of the lateral shoots, cherry variety Sweetheart", "assay": "Callus induction from cut stem cross sections (including nodes) cultured on media", "type": "cell-based, sweet cherry (Prunus avium)", "conditions": "24° C., 8 weeks in the dark", "method": "The cherry variety, Sweetheart, was grown in a greenhouse and stem tissue was collected. The stem tissue was grown in vitro on propagation media (Table 1) at 25° C., 40 μM light with a 16 hour photoperiod until lateral shoots began to emerge. The stem tissue with lateral shoots were grown on the propagation media for no more than 10 days and were collected by day 10.\nLeaves and petioles were removed from the lateral shoots and cross sections of the stems (including nodes) of the lateral shoots were cut. The cross sections of the stems were about 0.5 mm wide. For the purpose of inducing callus formation, the cut material was then placed onto either Garin media as described in Garin, E., et al. (1997). Plant cell, tissue and organ culture, 48(2), 83-91, media comprising 2 mg TDZ, media comprising 5 mg TDZ, or media comprising 10 mg TDZ and cultured at 24° C. for 8 weeks in the dark. The plant material was moved to fresh media approximately every three weeks. If endophyte growth was noted as the experiment was progressing, then the media was supplemented with 200 mg/L cefoxatime. Approximately 149 nodes were processed and cultured on the media containing 5 mg TDZ. Approximately 149 nodes were processed and cultured on the media containing 10 mg TDZ. Approximately 324 nodes were processed and cultured on the Garin media. The lateral shoots were cultured for a total of 8 weeks on the medias described above and then observed for the formation of callus.", "note": "“Also recorded” adds a separate entry of the source.", "data": [{"molecule": "O=C(Nc1ccccc1)Nc1cnns1", "note": "[TDZ, thidiazuron]", "values": [{"measurement": "Observations (callus formation)", "setting": "media comprising 2 mg TDZ", "result": "Small amount of callus formed"}, {"measurement": "Observations (callus formation)", "setting": "media comprising 5 mg TDZ", "result": "Moderate amount of callus but much"}, {"measurement": "Observations (callus formation)", "setting": "media comprising 10 mg TDZ (10 mg/L)", "result": "many more of the tissues developing callus; also recorded: along with considerably more mass being"}, {"measurement": "tissues forming callus", "setting": "media comprising 10 mg TDZ", "result": "Nearly 100% of tissues forming callus"}]}]}
